Data on 2 compounds can be found in US11549123B2, “Plant EPSP synthases and methods of use” (PIONEER HI-BRED INTERNATIONAL, INC., priority 2015, dated 2023).

Where a chain is given by its changes, count along the chain named. “And” between values parts separate entries of the source, which are not always exact repeats. Identical values can stand only once.

Experiment [1] deals with T1, Zea mays EPSPS variant P107L (Zea mays, UniProt O24566, P106L).
T1 sequence (O24566 with tags, fused parts or gaps P106L): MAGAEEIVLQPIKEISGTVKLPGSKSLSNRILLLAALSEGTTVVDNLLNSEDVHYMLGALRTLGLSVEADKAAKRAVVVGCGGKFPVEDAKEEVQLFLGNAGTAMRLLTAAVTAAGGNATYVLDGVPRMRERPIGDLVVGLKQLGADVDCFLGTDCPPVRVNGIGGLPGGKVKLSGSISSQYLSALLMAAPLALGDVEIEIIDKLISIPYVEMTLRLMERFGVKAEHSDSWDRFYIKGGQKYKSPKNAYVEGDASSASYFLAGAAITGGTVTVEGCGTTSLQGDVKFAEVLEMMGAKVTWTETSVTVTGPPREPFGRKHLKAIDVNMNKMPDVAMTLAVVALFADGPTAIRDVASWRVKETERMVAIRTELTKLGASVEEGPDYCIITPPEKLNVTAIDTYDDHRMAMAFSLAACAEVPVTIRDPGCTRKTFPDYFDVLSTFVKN
The experiment can be described thus: EPSPS substrate saturation kinetics, P107L.
Experimental: EPSPS activity was determined by quantifying the phosphate generated from the EPSPS reaction. Release of inorganic phosphate was coupled to reaction with 2-amino-6-mercapto-7-methylpurine ribonucleoside, catalyzed by purine-nucleoside phosphorylase (M R Webb, Proc. Natl. Acad. Sci. 89:4884-4887, 1992). The absorbance change that occurs was monitored at 360 nm, where the extinction is 11,200 M^−1 cm^−1, with a Spectramax plate reader (Molecular Devices). To determine kinetic parameters, the varied substrate was present at seven concentrations (the eighth being the blank, containing no substrate) ranging from 4 to 400 uM and the unvaried substrate present at saturation. Six microliters of 50-fold concentrated stock solutions of the varied substrate were placed in the wells of the 96-well assay plate and reactions were started with the addition of a mixture containing 25 mM Hepes, pH 7, 100 mM KCl, 0.3 mM 2-amino-6-mercapto-7-methylpurine ribonucleosde, 1 uM (1 unit/ml) purine-nucleoside phosphorylase (Sigma N8264) and 200 uM of the non-varied substrate. Reactions were monitored with a Spectramax plate reader. The Michaelis-Menten kinetics protocol of the Spectramax software was customized for the substrate concentrations used. The software returns values of KM and Vmax using the Lineweaver-Burke transformation of the Michaelis-Menten equation. To determine kcat, Vmax (uM/min) was divided by the enzyme concentration (uM). […] KI was then calculated from the following form of the Michaelis-Menten equation for competitive inhibition: KI=KM[I]/(KM app−KM) KM approximates the dissociation constant of the enzyme-substrate complex while kcat is the rate of conversion of substrate to product when the substrate concentration is saturating. kcat/KM is a widely accepted parameter for catalytic efficiency when substrate concentration is low (˜KM). […] The parameter kcat/KM×KI is used to quantify both catalytic efficiency and insensitivity and thus the overall fitness of the enzyme.

Experiment [2] addresses T2, Zea mays (maize) EPSPS, native, SEQ ID NO:1 (Table 10: SEQ ID NO:2) (Zea mays, UniProt O24566).
T2 sequence (O24566 with tags, fused parts or gaps): T1 sequence (O24566 with tags, fused parts or gaps P106L) with L107P
Briefly: EPSPS substrate saturation kinetics (PEP varied, glyphosate inhibition), native maize. It is filed as biochemical. An excerpt: The amino acid sequence of mature Zea mays EPSP synthase (EPSPS) was obtained from GenBank entry CAA44974.1 (NCBI GI No. 1524383; presented herein as SEQ ID NO:2). A nucleotide sequence was created to add an N-terminal methionine and to optimize codon usage for expression in E. coli. The synthetic gene was supplied by a commercial vendor. The gene was cloned into an expression vector that provides a T7 promoter driving expression of the protein. The vector was modified to change a 6×N-terminal histidine tag to a 10×tag. The resulting coding region of the vector yields an expressed protein with the amino acid sequence shown in Table 1 (represented by SEQ ID NO:1). The coding region is preceded by an N-terminal extension represented by SEQ ID NO:3.
Whether protein production was done in BL21(DE3) or with the Tuner AroA knockout, the vector was electroporated into cells and transformants were selected for growth on LB agar containing 100 ug carbennicillin/ml. Cells were grown in Magic Medium, in which induction occurs when the medium becomes depleted of glucose. After 4 hours of growth at 37° C., cells were transferred to 30° C. and grown another 16 hrs. Pelleted cells were lysed with BPER (Pierce) protein extraction reagent containing 0.2 mg/ml lysozyme, 1 mM dithiothreitol, protease inhibitor cocktail (Sigma, bacterial cocktail) and endonuclease. Insoluble cellular debris was removed by centrifugation. EPSPS protein was purified from the soluble protein solution by affinity chromatography on the nickel form of nitrilotriacetic acid (Ni-NTA) resin (Qiagen). Protein concentration was measured by absorbance at 280 nm using an extinction coefficient of 0.676 OD/mg/ml, provided by Vector NTI.
Shikimate-3-phosphate (S3P) was prepared from cultures of Klebsiella pneumonia aroA-(ATCC 25597). Cells from a 500 ml culture grown in 2×YT were used to inoculate 6 L of minimal medium augmented with 55 uM tyrosine, 60 uM phenylalanine, 25 uM tryptophan, 0.1 uM 4-aminobenzoate and 0.1 uM 4-hydroxybenzoate (Weiss et al., 1953. J Amer Chem Soc 75:5572-5576). Accumulation of S3P was monitored by anion exchange HPLC. After about 4 days shaking at 37 C, the concentration reached ˜1 mM. S3P was purified from the culture supernatant by anion exchange chromatography in ammonium bicarbonate at pH 7.3, with gradient elution up to 0.7 M. S3P was cleanly separated from phosphate, which eluted earlier.
EPSPS activity was determined by quantifying the phosphate generated from the EPSPS reaction. Release of inorganic phosphate was coupled to reaction with 2-amino-6-mercapto-7-methylpurine ribonucleoside, catalyzed by purine-nucleoside phosphorylase (M R Webb, Proc. Natl. Acad. Sci. 89:4884-4887, 1992). The absorbance change that occurs was monitored at 360 nm, where the extinction is 11,200 M^−1 cm^−1, with a Spectramax plate reader (Molecular Devices). To determine kinetic parameters, the varied substrate was present at seven concentrations (the eighth being the blank, containing no substrate) ranging from 4 to 400 uM and the unvaried substrate present at saturation. […] Reactions were monitored with a Spectramax plate reader. […]

Setting [3] is: PEP as substrate, glyphosate as inhibitor.

For orientation: Km means the concentration of substrate that gives half-maximal velocity. On to `C=C(OP(=O)(O)O)C(=O)O` [PEP, phosphoenolpyruvate], for which the kcat/KM in experiment [1] (PEP) is 22.1 min^−1uM^−1. Besides, the kcat in experiment [1] (PEP varied) is 24.2 s⁻¹; in experiment [2] (PEP varied, S3P saturating, pH 7), 1464 min⁻¹; in experiment [2] (Table 3, unit not given), 1464. Also, the Km in experiment [2] (read-out: KM (PEP), Table 3, unit inferred) is 15.7 µM.
In general, Ki refers to a dissociation constant, usually derived from enzyme kinetics or from competition with a known ligand. A higher Ki goes with lower affinity. Turning to `O=C(O)CNCP(=O)(O)O` [glyphosate, N-phosphonomethylglycine], the Ki stood at 3.6 µM in experiment [1] (KI (glyphosate), competitive with PEP); 3.05 µM in experiment [1] (Ki, substrate saturation, Zm-P107L); 0.13 µM in experiment [2]. Besides, the “(kcat/KM)*KI” value is 79 in experiment [1] (setting [3]); 70 in experiment [1] (substrate saturation, Zm-P107L); 11.8 and 12 in experiment [2] (setting [3]).
